Measured values from US20220062240A1, “METHODS OF TREATING CANCER USING A CLK INHIBITOR” (BioSplice Therapeutics, Inc., priority 2018, published 2022).
Where two headings read alike, the source gives them in different places.

Experiments:
CLK2 = biological target: T1, CLK2 (Homo sapiens, UniProt P49760); experiment: CLK2 kinase activity assay (Z-lyte, Ser/Thr 6 peptide); type: biochemical; settings: recombinant CLK2 kinase, ATP 60 μM; read-out: EC50
T1 construct: purchased Thermo Fisher (Life Technologies), Z'-LYTE Kinase Assay Kits
T1 sequence (P49760 whole entry): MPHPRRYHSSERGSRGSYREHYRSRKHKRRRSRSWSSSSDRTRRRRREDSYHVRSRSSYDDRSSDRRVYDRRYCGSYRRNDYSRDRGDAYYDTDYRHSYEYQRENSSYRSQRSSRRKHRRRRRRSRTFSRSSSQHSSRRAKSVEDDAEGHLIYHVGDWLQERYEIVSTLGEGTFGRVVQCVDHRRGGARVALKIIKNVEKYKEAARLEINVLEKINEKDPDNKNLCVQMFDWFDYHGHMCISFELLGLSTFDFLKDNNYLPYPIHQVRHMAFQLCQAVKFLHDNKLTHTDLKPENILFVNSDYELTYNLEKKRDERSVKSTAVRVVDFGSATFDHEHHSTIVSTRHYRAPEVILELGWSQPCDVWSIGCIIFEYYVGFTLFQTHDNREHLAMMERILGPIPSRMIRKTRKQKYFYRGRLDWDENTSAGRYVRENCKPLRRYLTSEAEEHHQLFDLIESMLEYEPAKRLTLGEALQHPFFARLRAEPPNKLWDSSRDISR
Description: All reactions were performed in duplicate.

BT-549 = experiment: CellTiter-Glo Viability Assay, breast cancer; type: cell-based; settings: Homo sapiens, 96 h; BT-549, breast cancer, four days; read-out: EC50
CAMA1 = experiment: CellTiter-Glo Viability Assay, breast cancer; type: cell-based; settings: Homo sapiens, CAMA-1, 96 h; CAMA1, breast cancer, four days; read-out: EC50
DU4475 = experiment: CellTiter-Glo Viability Assay, breast cancer; type: cell-based; settings: Homo sapiens, DU-4475, 96 h; DU4475, breast cancer, four days; read-out: EC50
HCC1599 = experiment: CellTiter-Glo Viability Assay, breast cancer; type: cell-based; settings: Homo sapiens, 96 h; HCC1599, breast cancer, four days; read-out: EC50
MCF7 = experiment: CellTiter-Glo Viability Assay, breast cancer; type: cell-based; settings: Homo sapiens, 96 h; MCF7, breast cancer, four days; read-out: EC50
MDA-MB-231-Luc = experiment: CellTiter-Glo Viability Assay, breast cancer; type: cell-based; settings: Homo sapiens, 96 h; MDA-MB-231-Luc, breast cancer, four days; read-out: EC50
T47D = experiment: CellTiter-Glo Viability Assay, breast cancer; type: cell-based; settings: Homo sapiens, 96 h, breast cancer, four days, read-out: EC50
ZR-75-1 = experiment: CellTiter-Glo Viability Assay, breast cancer; type: cell-based; settings: Homo sapiens, 96 h; ZR-75-1, breast cancer, four days; read-out: EC50
all 50 cell lines = experiment: CellTiter-Glo Viability Assay, average across all cell lines; type: cell-based; settings: Homo sapiens; across all 50 cell lines; read-out: average EC50 for inhibition of cancer cell proliferation
Procedure, shortened: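 Luminescent ATP read-out (CellTiter-Glo) after a 4-day compound exposure at 37° C served as the viability measure. Cells were seeded at 300-3,000/well, compound wells run in duplicate against DMSO controls, and EC50 values came from fitted dose-response curves.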

[1] = system: colorectal cancer (6 cell lines); experiment: CellTiter-Glo Viability Assay, colorectal cancer; type: cell-based; settings: Homo sapiens, inhibition of cancer cell proliferation
[2] = system: haematopoietic & lymphoid tumors (13 cell lines); experiment: CellTiter-Glo Viability Assay, haematopoietic & lymphoid tumors; type: cell-based; settings: Homo sapiens, inhibition of cancer cell proliferation
[3] = system: liver cancer (3 cell lines); experiment: CellTiter-Glo Viability Assay, liver cancer; type: cell-based; settings: Homo sapiens, inhibition of cancer cell proliferation
[4] = system: lung cancer (4 cell lines); experiment: CellTiter-Glo Viability Assay, lung cancer; type: cell-based; settings: Homo sapiens, inhibition of cancer cell proliferation
[5] = system: ovarian cancer (4 cell lines); experiment: CellTiter-Glo Viability Assay, ovarian cancer; type: cell-based; settings: Homo sapiens, inhibition of cancer cell proliferation
[6] = system: pancreatic cancer (8 cell lines); experiment: CellTiter-Glo Viability Assay, pancreatic cancer; type: cell-based; settings: Homo sapiens, inhibition of cancer cell proliferation
[7] = system: prostate cancer (5 cell lines); experiment: CellTiter-Glo Viability Assay, prostate cancer; type: cell-based; settings: Homo sapiens

EC50 (CLK2): 0.0028 µM
EC50 (BT-549): 5.81 µM
EC50 (CAMA1): > 10 µM
EC50 (DU4475): 1.66 µM
EC50 (HCC1599): 2.2 µM
EC50 (MCF7): > 10 µM
EC50 (MDA-MB-231-Luc): > 10 µM
EC50 (T47D): > 10 µM
EC50 (ZR-75-1): > 10 µM
EC50 ([1]; HCT-116, HCT116 cell line, read-out: Colorectal cancer, EC50 (μM) HCT116): > 10 µM
EC50 ([1]; HT-29, HT29 cell line, read-out: Colorectal cancer, EC50 (μM) HT29): > 10 µM
EC50 ([1]; SW-620, SW620 cell line, read-out: Colorectal cancer, EC50 (μM) SW620): 7.7 µM
EC50 ([1]; DLD-1 cell line, read-out: Colorectal cancer, EC50 (μM) DLD-1): > 10 µM
EC50 ([1]; SW48 cell line, read-out: Colorectal cancer, EC50 (μM) SW48): 2.03 µM
EC50 ([1]; SW480 cell line, read-out: Colorectal cancer, EC50 (μM) SW480): > 10 µM
EC50 ([2]; DND41, DND-41 cell line, read-out: Haematopoietic & Lymphoid tumors, EC50 (μM) DND-41): 2.38 µM
EC50 ([2]; MV4-11, MV-4-11 cell line, read-out: Haematopoietic & Lymphoid tumors, EC50 (μM) MV-4-11): 0.188 µM
EC50 ([2]; Rec1, REC-1 cell line, read-out: Haematopoietic & Lymphoid tumors, EC50 (μM) REC-1): 6.85 µM
EC50 ([2]; SU-DHL-4, SUDHL4 cell line, read-out: Haematopoietic & Lymphoid tumors, EC50 (μM) SUDHL4): 0.953 µM
EC50 ([2]; HL-60 cell line, read-out: Haematopoietic & Lymphoid tumors, EC50 (μM) HL-60): 3.13 µM
EC50 ([2]; JM1 cell line, read-out: Haematopoietic & Lymphoid tumors, EC50 (μM) JM1): 1.68 µM
EC50 ([2]; JURKAT, Clone E6-1 cell line, read-out: Haematopoietic & Lymphoid tumors, EC50 (μM) JURKAT, Clone E6-1): > 10 µM
EC50 ([2]; JeKo-1 cell line, read-out: Haematopoietic & Lymphoid tumors, EC50 (μM) JeKo-1): 0.917 µM
EC50 ([2]; KASUMI-1 cell line, read-out: Haematopoietic & Lymphoid tumors, EC50 (μM) KASUMI-1): 9.46 µM
EC50 ([2]; Loucy cell line, read-out: Haematopoietic & Lymphoid tumors, EC50 (μM) Loucy): 1.71 µM
EC50 ([2]; MOLT-4 cell line, read-out: Haematopoietic & Lymphoid tumors, EC50 (μM) MOLT-4): > 10 µM
EC50 ([2]; TF-1 cell line, read-out: Haematopoietic & Lymphoid tumors, EC50 (μM) TF-1): 4.32 µM
EC50 ([2]; TOLEDO cell line, read-out: Haematopoietic & Lymphoid tumors, EC50 (μM) TOLEDO): 1.85 µM
EC50 ([3]; SNU-398, SNU398 cell line, read-out: Liver cancer, EC50 SNU398): 3.38 µM
EC50 ([3]; HEPG2 cell line, read-out: Liver cancer, EC50 HEPG2): > 10 µM
EC50 ([3]; PLC/PRF/5 cell line, read-out: Liver cancer, EC50 PLC/PRF/5): > 10 µM
EC50 ([4]; A-427, A427 cell line, read-out: Lung cancer, EC50 (μM) A427): 7.79 µM
EC50 ([4]; HCC78, HCC-78 cell line, read-out: Lung cancer, EC50 (μM) HCC-78): > 10 µM
EC50 ([4]; NCI-H460 cell line, read-out: Lung cancer, EC50 (μM) NCI-H460): > 10 µM
EC50 ([4]; NCI-H522 cell line, read-out: Lung cancer, EC50 (μM) NCI-H522): 7.58 µM
EC50 ([5]; PA-1, PA1 cell line, read-out: Ovarian cancer, EC50 (μM) PA1): > 10 µM
EC50 ([5]; TOV112D, TOV-112D cell line, read-out: Ovarian cancer, EC50 (μM) TOV-112D): > 10 µM
EC50 ([5]; OV-90 cell line, read-out: Ovarian cancer, EC50 (μM) OV-90): > 10 µM
EC50 ([5]; OVCAR-3 cell line, read-out: Ovarian cancer, EC50 (μM) OVCAR-3): 3.89 µM
EC50 ([6]; BXPC-3, BxPC3 cell line, read-out: Pancreatic cancer, EC50 BxPC3): 7.25 µM
EC50 ([6]; CAPAN-1, Capan1 cell line, read-out: Pancreatic cancer, EC50 Capan1): > 10 µM
EC50 ([6]; Capan-2, Capan2 cell line, read-out: Pancreatic cancer, EC50 Capan2): > 10 µM
EC50 ([6]; MIA PaCa-2 cell line, read-out: Pancreatic cancer, EC50 MIA PaCa-2): 6.72 µM
EC50 ([6]; PANC 05.04 cell line, read-out: Pancreatic cancer, EC50 PANC 05.04): > 10 µM
EC50 ([6]; PANC-1 cell line, read-out: Pancreatic cancer, EC50 PANC-1): > 10 µM
EC50 ([6]; UPAFII cell line, read-out: Pancreatic cancer, EC50 UPAFII): > 10 µM
EC50 ([7]; DU-145, read-out: Prostate cancer EC50 Du-145): > 10 µM
EC50 ([7]; PC-3, PC3 cell line, inhibition of cancer cell proliferation, read-out: Prostate cancer EC50 PC3): 8.34 µM
EC50 ([7]; 22Rv1 cell line, inhibition of cancer cell proliferation, read-out: Prostate cancer EC50 22Rv1): 6.98 µM
EC50 ([7]; LNCap clone FGC cell line, inhibition of cancer cell proliferation, read-out: Prostate cancer EC50 LNCap clone FGC): > 10 µM
EC50 ([7]; VCaP (Sigma) cell line, inhibition of cancer cell proliferation, read-out: Prostate cancer EC50 VCaP (Sigma)): > 10 µM
SMILES: CN1CCCn2cc(nn2)-c2nccc3[nH]c(nc23)-c2n[nH]c3ccc(cc23)-c2cncc(c2)C1 [Compound 57]
EC50 (all 50 cell lines): 7.29 µM
